Measurements: patent US20100063156A1, “ANANDAMIDE” (priority 2006, published 2010)

Key:
Sprague-Dawley rats = experiment: Food intake in rats after intragastric infusion of anandamide; type: in vivo, rat; conditions: for 9-h cumulative food intake: intragastric infusion in sunflower oil, rats food-deprived 15 h, control 27.1 g
Procedure: An experiment was conducted to measure the effect of different levels of anandamide intake on food intake in rats. Thirteen adult male Sprague-Dawley rats (Charles River, Germany) were surgically equipped with a chronic gastric cannula. Animals were individually housed in plastic cages (42×22×36 cm) with stainless steel grid floors in a temperature-controlled (22±2° C.) room. The 12:12-h light-dark cycle was inversed (lights off 09:00 h).
Rats had free access to water and restricted access to ground extruded feed (No. 3436, Provimi Kliba-nafag, Kaiseraugst, Switzerland). To prevent spoilage of food, it was placed in cups at the end of a tunnel (5×10×30 cm) that protruded from the side of the cage, with its bottom 5 cm above the cage floor. Food cups were mounted on electronic balances (Mettler PM 3000, Switzerland) that were interfaced with a computer (Olivetti M 300, Germany). Weights of the food cups were recorded the every 30 s, enabling continuous measurement of spontaneous feeding patterns. Anandamide (98% purity, dissolved in ethanol) was obtained from Cayman Chemical Company, Michigan, USA). It was stored deep-frozen, until the experiment. Than the proper quantity was mixed into sunflower oil.
Before starting the experimental period, rats (394±7 g) were adapted to the restricted food access. One day prior to the test, they were also adapted to infusion of sunflower oil. The experimental period lasted five consecutive days. During the experiment, rats were deprived from food each day for 15 h (18.00-9.00 h). […] Each of these doses was given to three rats. One rat was excluded from the experiment after 2 days, and a spare animal was included.

test animals = conditions: introduced into the blood stream; neither decreased nor increased food intake; cited from earlier work
rats = conditions: anandamide introduced by injection (Williams & Kirkham 2002); cited from earlier work

With CCCCC/C=C\C/C=C\C/C=C\C/C=C\CCCC(=O)NCCO [anandamide, arachidonyl-ethanolamide] the “9-h cumulative food intake” value (Sprague-Dawley rats; 2.5 mg anandamide/d) was 25.8 g, the “food intake compared to the control” value (Sprague-Dawley rats; 2.5 mg/d, intragastric) was “did not affect food intake” and the “9-h cumulative food intake” value (Sprague-Dawley rats; 5.0 mg anandamide/d) was 27.6 g. The “food intake calculated as a mean over the 9-h period” value (Sprague-Dawley rats; 5.0 mg versus 0 or 2.5 mg anandamide) was “significantly lower”, the “food intake compared to the control” value (Sprague-Dawley rats; 5.0 mg, 3 through 6 hours after infusion, P<0.001, difference disappeared later) was “reduced food intake significantly” and the “9-h cumulative food intake, significance versus other treatments” value (Sprague-Dawley rats; 7.5 mg anandamide/d versus 0, 2.5 and 5.0 mg) was “significantly different from the other treatments”. The “9-h cumulative food intake” value (Sprague-Dawley rats; 7.5 mg anandamide/d) was 23.0 g, the “food intake calculated as a mean over the 9-h period” value (Sprague-Dawley rats; 7.5 mg versus 0 or 2.5 mg anandamide) was “significantly lower” and the “food intake compared to the control” value (Sprague-Dawley rats; 7.5 mg/d, until 9 h post-infusion) was “lower food intake persisted until 9 h post-infusion”. For the same compound, the voluntary food intake (test animals) was “ineffective” and the “appetite / feeding effect” value (rats) was “Appetite stimulating effects were found”.
